In patent publication EP4385495A1, “NANOSYSTEMS FOR THE ENCAPSULATION OF THERAPEUTIC AGENTS” (National Technical University of Athens, priority 2022, dated 2024):

Legend:
IL-6 in RAW264.7 cells = test: IL-6 ELISA in supernatants of LPS-stimulated RAW264.7 cells; assay type: cell-based, mouse; conditions: 48h after dilution of nanosystems
Method: The assay was carried using the MOUSE IL-6 ELISA KIT by ORIGENE_(CATALOG No. EA100128), which was based on the evaluation on Microwell Plates coated with antibody to mouse IL-6. The general protocol provided by the supplier for the evaluation of the samples as well as the development of the standard curve of IL-6 was followed. All reagents and working standards were prepared as directed in the instruction form and determined the number of microwell strips required to test the desired number of samples plus appropriate number of wells needed for running blanks and standards. Then 100µL of Standard, control, or sample, were added per well and the plate was cover with the adhesive strip provided and incubated for 1.5 hours at 37°C.
Afterwards, each well was aspirated and washed, and the process was repeated three times for a total of four washes by filling each well with Wash Buffer. […]
After incubation washing was carried out again, followed by the addition of the working solution of Streptavidin-HRP to each well. […] Finally, the plate was gently tapped to ensure thorough mixing and determine the optical density (OD) of each well immediately, using a microplate reader set to 450 nm (optionally 630nm as the reference wavelength;610-650nm is acceptable).
The OD measured for all samples is reflected on the IL-6 standard curve which was developed following the same steps. […] This quantitative assay is based on the sandwich principal as previously described, utilizing the cell culture supernatants for the evaluation of IL-6 protein presence in LPS-treated cells in the presence of the evaluated samples.
For this protocol, RAW264.7 cells were treated with LPS prior to the measurement to stimulate IL-6 production and results are reported as pg/ml of IL-6 corresponding to the standard curve of IL-6 developed ([…]). […] Table 3: Anti-inflammatory potential of the samples expressed as IL-6 presence in LPS-stimulated RAW264.7 cells supernatants.

MMP-13 = MMP-13 ELISA in secretions of TNFα-stimulated chondrocytes; assay type: cell-based, human; conditions: for Mean % relative MMP-13 secretion (72h): co-treatment with TNFα, normalized to negative control (TNFα only)
Excerpt: Matrix Mettaloproteinase 13 (MMP-13) is the main culprit in the destabilization of the anabolic/catabolic balance in the articular joint. MMP-13 […] balance towards catabolism and collagen II degradation which aggravates the OA pathology and is an enzyme that is secreted by chondrocytes in the extracellular environment. […] A decrease in MMP-13 levels is desirable, correlates with less degradation of cartilage and is widely used in the OA research field as a histopathological marker to evaluate amelioration of OA cellular pathology in the joint following an intervention. Finding Nanoparticles that can reduce MMP-13 levels in the assay is a promising lead for a favorable effect in a pre-clinical animal model in vivo. […] The results in Table 6 are the mean relative values from at least 3 independent repetitions of the experiments. Table 6. MMP-13 ELISA results as normalized values relative to negative control (NC, TNFα-stimulated cells without nanosystems) from 3 independent experiments. The standard deviations are omitted for simplicity. Samples' coding: S1=Naringin pure compound, S2=Naringin encapsulated in PLA nanoparticles [PLA[NAR]], S3=Naringin encapsulated in PLA nanoparticles coated with chitosan CS[PLA[NAR]], and S4=Blank PLA nanoparticles coated with chitosan, CS[PLA[---]].

[1] = Body weight in collagenase-induced osteoarthritis rat model; assay type: in vivo, Wistar rats
Method: In order to understand the anti-inflammatory and antioxidant potential of the nanoparticles of the invention in vivo an experimental animal model of osteoarthritis (OA) was established. The OA lesions were caused by matrix degradation of articular cartilage using enzymatic means, such as collagenase type-II. Following the induction of osteoarthritis, the studied nanoparticles were administered for 8 weeks in which period the morphological and behavioral changes were measured and finally histological analysis of the articular cartilage samples concluded the in vivo study.
(§1) Healthy adult male Wistar rats (150-200 g) were used for the study, with water and food ad libitum, at a constant temperature of 22°C and controlled lighting (12 h light/12 h dark cycle).
(§2) As far as the dispersion procedure of the injectables is concerned, all the natural compounds were dissolved in saline solution, whereas the studied nanoparticles were mechanically grinded in a mortar and pestle set with saline solution and Tween 20 (2% w/v) and heated at 36 °C before each treatment. There were six treatments administered every 10 days. At the end of the experiment rats were euthanized and both knees were collected for histological analysis.
(§3) Rats were anesthetized with chloral hydrate. The right knee joints of Group I were injected with normal saline solution and served as a control. Animals from the groups II, III, IV, V, VI, VII were injected with collagenase type II (Clostridium histolyticum). Collagenase (125 collagen digestion unit/mg) was dissolved in saline, and it was injected intra-articularly into the right knee joint twice on days 1 and 4 of the experiment (Al-Saffar, F., H. Ganabadi and S. Fakurazi. Collagenase and sodium iodoacetate-induced experimental osteoarthritis model in Sprague dawley rats. Asian J. Sci. Res. 2: 1-13, 2009). The left knees of all animals were left untreated as a control.
Changes in body weight and knee diameter were measured on the 1st, 4th,11th,21st,31st,41st,51st, 61st, 71st day before every injection. Knee diameter was measured using a digital caliper. […] A change in body weight is also measured as one of the parameters to assess the course of the disease in the OA animal models.

[2] = tested on: experimental animal model of osteoarthritis (OA); test: Grid-walking test in osteoarthritis rat model; assay type: in vivo, Wistar rats
Method: as §1, §2, §3
(§4) For the evaluation of the effectiveness and time of release of the encapsulated compounds, all animals were subjected to a series of behavioral testing in addition to the measurements of body weight and knees diameter change. The experimental protocol of the present study followed the combination of three different behavioral tests, which are von Frey mechanical allodynia test, grid walking and slope walking test. Behavioral tests are performed in three phases, at the beginning before the start of treatment, in the middle of treatment (approximately 35-40 days) and at the end (after the 70th day).
In this test the rats were allowed to explore freely for 4 minutes in a wire grid and when one of the limbs fell below the grid surface during free walking, the observer counted the number of foot-fault errors (footslips) (Starkey, M. L., Barritt, A. W., Yip, P. K., Davies, M., Hamers, F. P. T., McMahon, S. B., & Bradbury, E. J. (2005). Assessing behavioural function following a pyramidotomy lesion of the corticospinal tract in adult mice. Experimental Neurology, 195(2), 524-539. doi:10.1016/j.expneurol.2005.0).

[3] = tested on: experimental animal model of osteoarthritis (OA); test: Slope walking test in osteoarthritis rat model; assay type: in vivo, Wistar rats
Method: as §1
As far as the dispersion procedure of the injectables is concerned, all the natural compounds were dissolved in saline solution, whereas the studied nanoparticles were mechanically grinded in a mortar and pestle set with saline solution and Tween 20 (2% w/v) and heated at 36 °C before each treatment. There were six treatments administered every 10 days.
as §3, §4
Walking on an inclined plane was used for the clinical assessment of motor function in rats after induction of OA. The method consists of placing the animal on an inclined plane and then measuring the time (seconds) needed for the animals to go up the walking tray.

[4] = 40 days (half of experimental protocol)
[5] = 70 days (end of experimental protocol)

## C[C@@H]1O[C@@H](O[C@H]2[C@H](Oc3cc(O)c4c(c3)O[C@H](c3ccc(O)cc3)CC4=O)O[C@H](CO)[C@@H](O)[C@@H]2O)[C@H](O)[C@H](O)[C@H]1O [S1 [NAR], Naringin]
IL-6 in RAW264.7 cells; 25 µM
  IL-6: 720,000 pg/ml
IL-6 in RAW264.7 cells; 50 µM
  IL-6: 700,000 pg/ml
IL-6 in RAW264.7 cells; 100 µM
  IL-6: 455,000 pg/ml
MMP-13; 10 µM Naringin (free or encapsulated)
  Mean % relative MMP-13 secretion (72h): 110,57%
MMP-13; 50 µM Naringin (free or encapsulated)
  Mean % relative MMP-13 secretion (72h): 113.28%
MMP-13; 200 µM
  Mean % relative MMP-13 secretion (72h): 102,77%
MMP-13; TNFα-stimulated chondrocytes
  decrease in MMP-13 (in words): did not give a detectable decrease
[1]; 1st injection CO/saline (before treatment)
  Body Weight (BW): 247 g
[1]; 1st treatment, 10 mg/kg (S1, ibuprofen i.p.; nanoparticles i.a.), every 10 days
  Body Weight (BW): 239 g
[1]; 2nd injection CO/saline (before treatment)
  Body Weight (BW): 236 g
[1]; 2nd treatment, 10 mg/kg (S1, ibuprofen i.p.; nanoparticles i.a.)
  Body Weight (BW): 247 g
[1]; 3rd treatment, 10 mg/kg (S1, ibuprofen i.p.; nanoparticles i.a.)
  Body Weight (BW): 276 g
[1]; 4th treatment, 10 mg/kg (S1, ibuprofen i.p.; nanoparticles i.a.)
  Body Weight (BW): 294 g
[1]; 5th treatment, 10 mg/kg (S1, ibuprofen i.p.; nanoparticles i.a.)
  Body Weight (BW): 317 g
[1]; 6th treatment, 10 mg/kg (S1, ibuprofen i.p.; nanoparticles i.a.)
  Body Weight (BW): 326 g
[1]; 11 days (before treatment)
  % Changes in Body Weight (BW): -3,2%
[1]; [4]
  % Changes in Body Weight (BW): 19,0%
[1]; [5]
  % Changes in Body Weight (BW): 34,8%
[1]; final, 10 mg/kg (S1, ibuprofen i.p.; nanoparticles i.a.)
  Body Weight (BW): 333 g
[2]; 11 days left paw
  Foot fault in grid-walk test (4 min): 3,4
[2]; 11 days right paw
  Foot fault in grid-walk test (4 min): 5,6
[2]; 40 days left paw
  Foot fault in grid-walk test (4 min): 2
[2]; 40 days right paw
  Foot fault in grid-walk test (4 min): 3
[2]; 70 days left paw
  Foot fault in grid-walk test (4 min): 2,8
[2]; 70 days right paw
  Foot fault in grid-walk test (4 min): 2,4
[3]; 11 days (before treatment)
  Slope Walking: 10,3 sec
[3]; [4]
  Slope Walking: 8,9 sec
[3]; [5]
  Slope Walking: 8,6 sec
